Experimental data from US20220008355A1, “USE OF CAN[…] THE TREATMENT OF EPILEPSY” (GW Research Limited, priority 2018, published 2022).

Experiments:
seizures [1] = conditions: twelve institutionalized adult patients; 200 mg/day; cited from earlier work
[2] = Solubility of the drug substance in water; assay type: physicochemical
Excerpt: The drug substance, CBD is insoluble in water. Sesame oil was selected as an excipient to solubilize the drug substance.

[3] = tested on: epilepsy associated with GRIN2A mutation; assay: Expanded access compassionate use case study of a child with GRIN2A mutation refractory epilepsy; assay type: in vivo, human
Method: Example 1 describes a case study of a child with a GRIN2A mutation that was provided highly purified cannabidiol as part of an expanded access treatment program of children with refractory epilepsy.
A child was enrolled in an expanded access compassionate use program for CBD. This subject was treated with a highly purified extract of cannabidiol (CBD) obtained from a cannabis plant. Frequency of seizures was recorded at each visit, as were reported quality of life changes, including mood, behaviour, and cognitive function.
The patient first presented with seizures. They experienced status epilepticus with myoclonic jerks and atypical absence seizures which lasted between 30 seconds to 15 minutes.
The patient had tried and failed 10 different anti-epileptic drugs, the ketogenic diet, vitamin B6 and vagus nerve stimulation however their seizures remained refractory.
Treatment with a highly purified CBD extract (greater than 98% CBD w/w) in sesame oil, of known and constant composition, at a dose of 5 mg/kg/day in addition to their baseline anti-epileptic drug (AED) regimen was commenced in September 2014 and has been ongoing for four years.
Laboratory testing for hematologic, liver, kidney function and concomitant AED levels was performed at baseline, and after every 4 weeks of CBD therapy.

[4] = tested on: seizures after administration of pro-convulsant drugs or an electric current; conditions: mice; cited from earlier work
seizures [5] = conditions: of four adult patients; 200 mg/day; cited from earlier work
Dravet syndrome = conditions: Phase 3, Dravet syndrome; cited from earlier work
[6] = tested on: secondary generalized epilepsy; conditions: of eight adult patients; cited from earlier work
seizures [7] = conditions: rabbit, in vivo; cited from earlier work

Compound | Control of seizures (seizures [1]) | Solubility in water [2] | Concomitant anti-epileptic drugs after treatment ([3]; after CBD treatment) | Cognitive function ([3]; after CBD treatment, patient now attends regular school and sports activities) | Seizure status since the start of treatment ([3]; one patient, CBD 5 up to 25 mg/kg/day added to baseline AEDs, four years of treatment) | EEG: posterior dominate rhythm, alpha activity ([3]; repeat EEG after treatment with CBD (FIG. 2)) [Hz] | EEG: epileptiform discharges ([3]; repeat EEG after treatment with CBD (FIG. 2), left frontal head region) | EEG: electrical status epilepticus during sleep ([3]; repeat EEG after treatment with CBD (FIG. 2), present at baseline) | Prevention of seizures [4] | Number of patients who became seizure free (seizures [5]) | Study outcome (Dravet syndrome) | Number of patients with marked reduction of seizures [6] | Convulsant liability (seizures [7])
C=C(C)[C@@H]1CCC(C)=C[C@H]1c1c(O)cc(CCCCC)cc1O [CBD, Cannabidiol] | ineffective | insoluble | All AEDs have been stopped with the exception of clobazam and the VNS | significantly improved | seizure free | 9 | rare | no electrical status epilepticus during sleep | able to prevent seizures | two | positive results | 4 | 
CCCCCc1cc(O)c2c(c1)OC(C)(C)[C@@H]1CCC(C)=C[C@@H]21 [THC, Tetrahydrocannabinol] |  |  |  |  |  |  |  |  |  |  |  |  | pro-convulsant
